Reference: patent US20210386721A1, “SUBSTITUTED PHENYLPROPENYL PYRIDINE DERIVATIVES, THEIR PREPARATION AND PHARMACEUTICAL APPLICATIONS” (SHANGHAI HAIYAN PHARMACEUTICAL TECHNOLOGY CO., LTD., priority 2019, published 2021)

How the values were obtained:
PD-1/PD-L1 = biological target: T1, PD-1/PD-L1 (Homo sapiens, UniProt Q9NZQ7); test: PD-1/PD-L1 binding assay (HTRF, PPI-HTRF); conditions: HTRF PD1/PD-L1 binding assay kit; 10 nM Tag1-PD-L1; 25° C.
T1 construct: purchased Cisbio 63ADK000CPDPEB
Method in brief: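 HTRF binding assay: compound was mixed with tagged proteins at final concentrations of 10 nM Tag1-PD-L1 and 2 nM PD1 for 15 min at 25 °C. Anti-Tag1-Eu³⁺ and anti-Tag2-XL665 antibodies were then added for 16 h at 25 °C. IC50 was derived from the 665/620 nm emission ratio.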

[1] = test system: Jurkat T(PD1 Luc-)/CHOK1(PDL-1); test: Jurkat T(PD1 Luc-)/CHOK1(PDL-1) cell experiment (luciferase reporter); type: cell-based; conditions: CHO/PD-L1-OKT3 cells co-cultured with Jurkat/PD1-NFAT-Luc cells for 6 hours; Bio-Glo luciferase signal
Protocol: Assay 2 Jurkat T(PD1 Luc-)/CHOK1(PDL-1) Cell Experiment
G418, Sangon Biotech #A100859-0001, Cat Number G108BA0003, 5 ml of deionized water being added into each bottle, store at 4° C.
CHO/PD-L1-OKT3 cells (constructed by referring to Promega's PD-1/PD-L1 Blockade Bioassays system) cultured in F-12K medium (containing 10% FBS, 800 ug/ml G418, 400 ug/ml D Hygromycin B) were planted into a 96-well plate at 2×10^4 per well, and incubated for 24 hours at 37° C. and 5% CO2. part of the medium was removed, and the test compound dissolved in DMSO with a final concentration of 1 uM was added, and DMSO at the same concentration was added into the control cells. Jurkat/PD1-NFAT-Luc cells (constructed by referring to Promega's PD-1/PD-L1 Blockade Bioassays system) were added at 5×10^5 per well at the same time, and cultured for 6 hours. The corresponding luciferase signal was detected by Bio-Glo™ (Promega, G7940) reagent. The EC50 of each compound to be tested was calculated through the non-linear regression of XLfit software.

T1 sequence (Q9NZQ7 19-238 limits assumed): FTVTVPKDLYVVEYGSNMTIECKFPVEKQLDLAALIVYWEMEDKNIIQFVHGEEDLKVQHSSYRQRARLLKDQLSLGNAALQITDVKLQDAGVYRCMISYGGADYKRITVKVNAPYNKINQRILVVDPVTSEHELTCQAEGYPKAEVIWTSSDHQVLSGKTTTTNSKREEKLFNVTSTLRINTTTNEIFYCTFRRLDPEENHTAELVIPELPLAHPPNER

Compound | IC50 (PD-1/PD-L1) | EC50 [1]
COc1cc(/C=C/c2cccc(-c3cccc(-c4nc5c(c(OC)n4)CN(C[C@@H]4CCC(=O)N4)CC5)c3C)c2C)c(C(F)(F)F)cc1CN1CC[C@@H](C(=O)O)C1 [Z-60, (R)-1-(2-methoxy-4-((E)-2-(3′-(4-methoxy-6-(((S)-5-oxopyrrolidin-2-yl)methyl)-5,6,7,8-tetrahydropyrido[4,3-d]pyrimidin-2-yl)-2,2′-dimethyl-[1,1′-biphenyl]-3-yl)vinyl)-5-(trifluoromethyl)benzyl) pyrrolidine-3-carboxylic Acid] | 2 nM | 79 nM
COc1cc(/C=C/c2cccc(-c3cccc(NC(=O)c4nc5c(n4C)CCN(C)C5)c3Cl)c2C)c(C(F)(F)F)cc1CN1CCCC[C@H]1C(=O)O [Z-108, (S,E)-1-(4-(2-(2′-chloro-3′-(1,5-dimethyl-4,5,6,7-tetrahydro-1H-imidazo[4,5-c]pyridine-2-carboxamido)-2-methyl-[1,1′-biphenyl]-3-yl)vinyl)-2-methoxy-5-(trifluoromethyl)benzyl)piperidine-2-carboxylic Acid] | 2 nM | 57 nM
COc1cc(/C=C/c2cccc(-c3cccc(Nc4nccc5cc(CN6CC[C@@H](O)C6)cnc45)c3C)c2C)c(C(F)(F)F)cc1CN1CC[C@@H](C(=O)O)C1 [Z-8] | 2 nM | 47 nM
COc1cc(/C=C/c2cccc(-c3cccc(-c4nc5cc(CN6CC[C@H](C(=O)O)C6)cc(C#N)c5o4)c3C)c2C)c(C(F)(F)F)cc1CN1CC[C@H](O)C1 [Z-30] | 2 nM | 104 nM
COc1cc(/C=C/c2cccc(-c3cccc(-c4nc5cc(CN6CC[C@@H](O)C6)cc(C#N)c5o4)c3C)c2C)c(C(F)(F)F)cc1CN1CCCC[C@H]1C(=O)O [Z-26] | 4 nM | 39 nM
COc1cc(/C=C/c2cccc(-c3cccc(NC(=O)c4ccc(CNCCS(C)(=N)=O)cn4)c3C)c2C)c(C(F)(F)F)cc1CN1CC[C@@H](C(=O)O)C1 (stereo partly drawn) [Z-109, (3R)-1-(4-((E)-2-(2,2′-dimethyl-3′-(5-(((2-(S-methylsulfonimidoyl)ethyl)amino)methyl)picolinamido)-[1,1′-biphenyl]-3-yl)vinyl)-2-methoxy-5-(trifluoromethyl)benzyl)pyrrolidine-3-carboxylic Acid] | 1 nM | 121 nM
COc1cc(/C=C/c2cccc(-c3cccc(-c4nc5cc(CN[C@@H](C)CO)cc(C#N)c5o4)c3C)c2C)c(C(F)(F)F)cc1CN1CCCC[C@H]1C(=O)O [Z-41, (S)-1-(4-((E)-2-(3′-(7-cyano-5-((((S)-1-hydroxypropan-2-yl)amino)methyl)benzo[d]oxazol-2-yl)-2,2′-dimethyl-[1,1′-biphenyl]-3-yl)vinyl)-2-methoxy-5-(trifluoromethyl)benzyl) piperidine-2-carboxylic Acid] | 2 nM | 109 nM
Cc1cc(/C=C/c2cccc(-c3cccc(Nc4nccc5cc(CN6CC[C@@H](O)C6)cnc45)c3C)c2C)c(C(F)(F)F)cc1CN1CC[C@@H](C(=O)O)C1 [Z-9] | 1 nM | 48 nM
COc1cc(/C=C/c2cccc(-c3cccc(NC(=O)c4ccc(CN5CC[C@@H](O)C5)cn4)c3Cl)c2Cl)c(C(F)(F)F)cc1CN1CC[C@@H](C(=O)O)C1 [Z-93] | 2 nM | 8 nM
COc1cc(/C=C/c2cccc(-c3cccc(NC(=O)c4nc5c(n4C)CCN([C@H]4CC[C@H](O)CC4)C5)c3C)c2C)c(C(F)(F)F)cc1CN1CC[C@@H](C(=O)O)C1 [Z-132, (R)-1-(4-((E)-2-(3′-(5-((1r,4r)-4-hydroxycyclohexyl)-1-methyl-4,5,6,7-tetrahydro-1H-imidazo[4,5-c]pyridine-2-carboxamido)-2,2′-dimethyl-[1,1′-biphenyl]-3-yl)vinyl)-2-methoxy-5-(trifluoromethyl)benzyl)pyrrolidine-3-carboxylic Acid] | 1 nM | 168 nM
Cc1cc(/C=C/c2cccc(-c3cccc(NC(=O)c4ccc(CN5CC[C@@H](O)C5)cn4)c3C)c2C)c(C(F)(F)F)cc1CN1CC[C@@H](C(=O)O)C1 [Z-90] | 1 nM | 24 nM
COc1cc(/C=C/c2cccc(-c3cccc(NC(=O)c4ccc(CN5CC[C@@H](O)C5)cn4)c3Cl)c2C)c(C(F)(F)F)cc1CN1CCC(C)(C(=O)O)C1 (stereo partly drawn) [Z-87, 1-(4-((E)-2-(2′-chloro-3′-(5-(((R)-3-hydroxypyrrolidin-1-yl)methyl)picolinamido)-2-methyl-[1,1′-biphenyl]-3-yl)vinyl)-2-methoxy-5-(trifluoromethyl)benzyl)-3-methylpyrrolidine-3-carboxylic Acid] | 1 nM | 26 nM
COc1cc(/C=C/c2cccc(-c3cccc(NC(=O)c4ccc(CN5CC[C@@H](O)C5)cn4)c3C)c2C)c(C(F)(F)F)cc1CN1CC[C@@H](C(=O)O)C1 [Z-84] | 1 nM | 25 nM
COc1cc(C(=O)Nc2cccc(-c3cccc(/C=C/c4cc(OC)c(CN5CCC(C)(C(=O)O)C5)cc4C(F)(F)F)c3C)c2C)ncc1CN1CC[C@@H](O)C1 (stereo partly drawn) [Z-121] | 1 nM | 31 nM

Continued, in another order:

IC50 (PD-1/PD-L1) | Compound | EC50 [1]
1 nM | COc1cc(/C=C/c2cccc(-c3cccc(-c4nc5cc(CN6CC[C@@H](C(=O)O)C6)cc(C#N)c5o4)c3C)c2Cl)c(C(F)(F)F)cc1CN1CC[C@@H](O)C1 [Z-38] | 83 nM
1 nM | Cc1cc(/C=C/c2nccc(-c3cccc(NC(=O)c4ccc(CNCCO)cn4)c3C)c2C#N)c(Cl)cc1CNCCO [Z-1, (E)-N-(3-(2-(2-chloro-4-(((2-hydroxyethyl)amino)methyl)-5-methylstyryl)-3-cyanopyridin-4-yl)-2-methylphenyl)-5-(((2-hydroxyethyl)amino)methyl)picolinamide] | 162 nM
1 nM | Cc1cc(/C=C/c2nccc(-c3cccc(NC(=O)c4ccc(CN5CC[C@@H](O)C5)cn4)c3C)c2C#N)c(C(F)(F)F)cc1CN1CC[C@@H](C(=O)O)C1 [Z-101] | 122 nM
1 nM | COc1cc(/C=C/c2cccc(-c3cccc(NC(=O)c4ccc(CN5CC[C@@H](O)C5)cn4)c3Cl)c2C)c(C(F)(F)F)cc1CN1CCC(C(=O)O)CC1 [Z-89] | 16 nM
1 nM | COc1cc(/C=C/c2cccc(-c3cccc(NC(=O)c4ccc(CN5CC[C@@H](O)C5)cn4)c3Cl)c2C)c(C(F)(F)F)cc1CN1CCC[C@H]1C(=O)O [Z-92] | 6 nM
1 nM | COc1cc(/C=C/c2cccc(-c3cccc(NC(=O)c4ccc(CN5CC[C@@H](O)C5)cn4)c3Cl)c2C)c(C(F)(F)F)cc1CN1CC[C@@H](C(=O)O)C1 [Z-80] | 36 nM
1 nM | COc1cc(/C=C/c2cccc(-c3cccc(NC(=O)c4cc(OC)c(CN5CC[C@@H](O)C5)cn4)c3C)c2C)c(C(F)(F)F)cc1CNC[C@@H](O)CC(=O)O [Z-118, (S)-3-hydroxy-4-((4-((E)-2-(3′-(5-(((R)-3-hydroxypyrrolidin-1-yl)methyl)-4-methoxypicolinamido)-2,2′-dimethyl-[1,1′-biphenyl]-3-yl)vinyl)-2-methoxy-5-(trifluoromethyl)benzyl)amino) butanoic Acid] | 13 nM
1 nM | COc1cc(/C=C/c2cccc(-c3cccc(-c4nc5cc(CN6CC[C@@H](C(=O)O)C6)cc(C#N)c5o4)c3C)c2C)c(C(F)(F)F)cc1CN1CC[C@@H](O)C1 [Z-21, (R)-1-((7-cyano-2-(3′-((E)-4-(((R)-3-hydroxypyrrolidin-1-yl)methyl)-5-methoxy-2-(trifluoromethyl)styryl)-2,2′-dimethyl-[1,1′-biphenyl]-3-yl)benzo[d]oxazol-5-yl)methyl) pyrrolidine-3-carboxylic Acid] | 5 nM
1 nM | COc1cc(/C=C/c2ccnc(-c3cccc(Nc4nccc5cc(CN6CC[C@@H](O)C6)cnc45)c3C)c2Cl)c(C(F)(F)F)cc1CN1CC[C@@H](C(=O)O)C1 [Z-12] | 153 nM
1 nM | COc1cc(/C=C/c2cccc(-c3cccc(-c4nc5cc(CN6CC[C@@H](C(=O)O)C6)cc(C(N)=O)c5o4)c3C)c2C)c(C(F)(F)F)cc1CN1CC[C@@H](O)C1 [Z-27, (R)-1-((7-carbamoyl-2-(3′-((E)-4-(((R)-3-hydroxypyrrolidin-1-yl)methyl)-5-methoxy-2-(trifluoromethyl)styryl)-2,2′-dimethyl-[1,1′-biphenyl]-3-yl)benzo[d]oxazol-5-yl)methyl)pyrrolidine-3-carboxylic Acid] | 176 nM
1 nM | COc1cc(/C=C/c2cccc(-c3cccc(NC(=O)c4ccc(CN5CC[C@@H](O)C5)cn4)c3Cl)c2C)c(C(F)(F)F)cc1CN1CCCC[C@H]1C(=O)O [Z-82] | 29 nM
1 nM | COc1cc(/C=C/c2cccc(-c3cccc(-c4cnc(CN5CC[C@@H](O)C5)c(OC)n4)c3C)c2C)c(C(F)(F)F)cc1CN1CC[C@@H](C(=O)O)C1 [Z-57] | 66 nM
≤ 1 nM | COc1cc(C(=O)Nc2cccc(-c3cccc(/C=C/c4cc(OC)c(CN5CC[C@@H](C(=O)O)C5)cc4C(F)(F)F)c3Cl)c2C)ncc1CN1CC[C@@H](O)C1 [Z-140] | 7 nM
